Laboratory results taken from US11820766B2, “Monoacylglycerol lipase modulators” (Janssen Pharmaceutica NV, priority 2018, dated 2023).

target: T1, human MGL from HeLa cells (Homo sapiens, UniProt Q99685); assay: In vitro MGL activity assay: [glycerol-1,3-3H]-oleyl glycerol cleavage by MGL from HeLa cells; format: biochemical; settings: 300 nM [Glycerol-1,3-3H]-oleyl glycerol, one hour
T1 construct: combining endogenously expressed MGL from HeLa cells with test compounds; endogenous in cells; host or cells: HeLa cells / cell homogenates
T1 sequence (Q99685 1-303): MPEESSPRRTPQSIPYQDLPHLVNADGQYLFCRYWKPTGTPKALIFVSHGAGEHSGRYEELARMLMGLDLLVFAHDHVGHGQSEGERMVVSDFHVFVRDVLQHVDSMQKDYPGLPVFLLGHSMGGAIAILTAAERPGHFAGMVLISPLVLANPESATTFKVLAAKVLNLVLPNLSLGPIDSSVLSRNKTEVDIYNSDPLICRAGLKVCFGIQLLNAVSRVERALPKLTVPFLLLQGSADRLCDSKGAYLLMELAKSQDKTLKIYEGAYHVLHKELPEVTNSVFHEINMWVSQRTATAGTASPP
Description: MGL is the predominant hydrolase in HeLa cells/cell homogenates.

Structure (SMILES) | IC50 [nM]
C[C@H]1c2nn(C)c(-c3cc(F)c(F)c(F)c3)c2CCN1C(=O)c1ccc2c(ccc[n+]2[O-])c1 [Example 516, [(7S)-2,7-Dimethyl-3-(3,4,5-trifluorophenyl)-5,7-dihydro-4H-pyrazolo[3,4-c]pyridin-6-yl]-(1-oxidoquinolin-1-ium-6-yl)methanone] | 141
Cc1ccc(-c2c3c(nn2C)[C@H](C)N(C(=O)c2ccc4ncccc4c2)CC3)cn1 [Example 519, [(7S)-2,7-Dimethyl-3-(6-methyl-3-pyridyl)-5,7-dihydro-4H-pyrazolo[3,4-c]pyridin-6-yl]-(6-quinolyl)methanone] | 1450
Cc1cc(-c2c3c(nn2C)[C@H](C)N(C(=O)c2ccc4ncccc4c2)CC3)ccn1 [Example 520, [(7S)-2,7-Dimethyl-3-(2-methyl-4-pyridyl)-5,7-dihydro-4H-pyrazolo[3,4-c]pyridin-6-yl]-(6-quinolyl)methanone] | 1110
C[C@H]1c2nn(C)c(-c3ccc(C(F)F)nc3)c2CCN1C(=O)c1ccc2ncccc2c1 [Example 521, [(7S)-3-[6-(Difluoromethyl)-3-pyridyl]-2,7-dimethyl-5,7-dihydro-4H-pyrazolo[3,4-c]pyridin-6-yl]-(6-quinolyl)methanone] | 766
C[C@H]1c2nn(C)c(-c3ccc(C(F)(F)F)nc3)c2CCN1C(=O)c1ccc2ncccc2c1 [Example 522, [(7S)-2,7-Dimethyl-3-[6-(trifluoromethyl)-3-pyridyl]-5,7-dihydro-4H-pyrazolo[3,4-c]pyridin-6-yl]-(6-quinolyl)methanone] | 267
C[C@H]1c2nn(C)c(-c3ccnc(C(F)(F)F)c3)c2CCN1C(=O)c1ccc2ncccc2c1 [Example 523, [(7S)-2,7-Dimethyl-3-[2-(trifluoromethyl)-4-pyridyl]-5,7-dihydro-4H-pyrazolo[3,4-c]pyridin-6-yl]-(6-quinolyl)methanone] | 417
COc1ccc(-c2c3c(nn2C)[C@H](C)N(C(=O)c2ccc4ncccc4c2)CC3)cn1 [Example 525, [(7S)-3-(6-Methoxy-3-pyridyl)-2,7-dimethyl-5,7-dihydro-4H-pyrazolo[3,4-c]pyridin-6-yl]-(6-quinolyl)methanone] | 602
COc1cc(-c2c3c(nn2C)[C@H](C)N(C(=O)c2ccc4ncccc4c2)CC3)ccn1 [Example 526, [(7S)-3-(2-Methoxy-4-pyridyl)-2,7-dimethyl-5,7-dihydro-4H-pyrazolo[3,4-c]pyridin-6-yl]-(6-quinolyl)methanone] | 502
C[C@H]1c2nn(C)c(-c3ccc(OC(F)F)nc3)c2CCN1C(=O)c1ccc2ncccc2c1 [Example 527, [(7S)-3-[6-(Difluoromethoxy)-3-pyridyl]-2,7-dimethyl-5,7-dihydro-4H-pyrazolo[3,4-c]pyridin-6-yl]-(6-quinolyl)methanone] | 278
C[C@H]1c2nn(C)c(-c3cncc(OC(F)F)c3)c2CCN1C(=O)c1ccc2ncccc2c1 [Example 528, [(7S)-3-[5-(Difluoromethoxy)-3-pyridyl]-2,7-dimethyl-5,7-dihydro-4H-pyrazolo[3,4-c]pyridin-6-yl]-(6-quinolyl)methanone] | 397
COc1ncc(-c2c3c(nn2C)[C@H](C)N(C(=O)c2ccc4ncccc4c2)CC3)cc1C [Example 529, [(7S)-3-(6-Methoxy-5-methyl-3-pyridyl)-2,7-dimethyl-5,7-dihydro-4H-pyrazolo[3,4-c]pyridin-6-yl]-(6-quinolyl)methanone] | 320
COc1ncc(-c2c3c(nn2C)[C@H](C)N(C(=O)c2ccc4ncccc4c2)CC3)cc1C(F)(F)F [Example 530, [(7S)-3-[6-Methoxy-5-(trifluoromethyl)-3-pyridyl]-2,7-dimethyl-5,7-dihydro-4H-pyrazolo[3,4-c]pyridin-6-yl]-(6-quinolyl)methanone] | 130
C[C@H]1c2nn(C)c(-c3ccc4c(c3)OCO4)c2CCN1C(=O)c1ccc2ncccc2c1 [Example 540, [(7S)-3-(1,3-Benzodioxol-5-yl)-2,7-dimethyl-5,7-dihydro-4H-pyrazolo[3,4-c]pyridin-6-yl]-(6-quinolyl)methanone] | 133
C[C@H]1c2nn(C)c(-c3cccc4c3OC(F)(F)O4)c2CCN1C(=O)c1ccc2ncccc2c1 [Example 542, [(7S)-3-(2,2-Difluoro-1,3-benzodioxol-4-yl)-2,7-dimethyl-5,7-dihydro-4H-pyrazolo[3,4-c]pyridin-6-yl]-(6-quinolyl)methanone] | 81.2

Results, then the compound that gave them:

IC50 [nM] | Structure (SMILES)
80.7 | C[C@H]1c2nn(C)c(-c3cc(F)c(F)c(F)c3)c2CCN1C(=O)c1ccc2nc(O)ccc2c1 [Example 517, [(7S)-2,7-Dimethyl-3-(3,4,5-trifluorophenyl)-5,7-dihydro-4H-pyrazolo[3,4-c]pyridin-6-yl]-(2-hydroxy-6-quinolyl)methanone]
7.23 | C[C@H]1c2nn(C)c(-c3csc(C(F)(F)F)c3)c2CCN1C(=O)c1ccc2ncccc2c1 [Example 524, [(7S)-2,7-Dimethyl-3-[5-(trifluoromethyl)-3-thienyl]-5,7-dihydro-4H-pyrazolo[3,4-c]pyridin-6-yl]-(6-quinolyl)methanone]
22.9 | C[C@H]1c2nn(C)c(-c3cccc4cc[nH]c34)c2CCN1C(=O)c1ccc2ncccc2c1 [Example 531, [(7S)-3-(1H-Indol-7-yl)-2,7-dimethyl-5,7-dihydro-4H-pyrazolo[3,4-c]pyridin-6-yl]-(6-quinolyl)methanone]
65 | C[C@H]1c2nn(C)c(-c3ccc4ccoc4c3)c2CCN1C(=O)c1ccc2ncccc2c1 [Example 532, [(7S)-3-(Benzofuran-6-yl)-2,7-dimethyl-5,7-dihydro-4H-pyrazolo[3,4-c]pyridin-6-yl]-(6-quinolyl)methanone]
17.4 | C[C@H]1c2nn(C)c(-c3ccc4occc4c3)c2CCN1C(=O)c1ccc2ncccc2c1 [Example 533, [(7S)-3-(Benzofuran-5-yl)-2,7-dimethyl-5,7-dihydro-4H-pyrazolo[3,4-c]pyridin-6-yl]-(6-quinolyl)methanone]
25.1 | C[C@H]1c2nn(C)c(-c3cccc4ccoc34)c2CCN1C(=O)c1ccc2ncccc2c1 [Example 534, [(7S)-3-(Benzofuran-7-yl)-2,7-dimethyl-5,7-dihydro-4H-pyrazolo[3,4-c]pyridin-6-yl]-(6-quinolyl)methanone]
18.1 | C[C@H]1c2nn(C)c(-c3cccc4occc34)c2CCN1C(=O)c1ccc2ncccc2c1 [Example 535, [(7S)-3-(Benzofuran-4-yl)-2,7-dimethyl-5,7-dihydro-4H-pyrazolo[3,4-c]pyridin-6-yl]-(6-quinolyl)methanone]
20 | C[C@H]1c2nn(C)c(-c3cc(F)cc4ccoc34)c2CCN1C(=O)c1ccc2ncccc2c1 [Example 536, [(7S)-3-(5-Fluorobenzofuran-7-yl)-2,7-dimethyl-5,7-dihydro-4H-pyrazolo[3,4-c]pyridin-6-yl]-(6-quinolyl)methanone]
33 | C[C@H]1c2nn(C)c(-c3cccc4scnc34)c2CCN1C(=O)c1ccc2ncccc2c1 [Example 537, [(7S)-3-(1,3-Benzothiazol-4-yl)-2,7-dimethyl-5,7-dihydro-4H-pyrazolo[3,4-c]pyridin-6-yl]-(6-quinolyl)methanone]
72.6 | C[C@H]1c2nn(C)c(-c3cccc4nonc34)c2CCN1C(=O)c1ccc2ncccc2c1 [Example 538, [(7S)-3-(2,1,3-Benzoxadiazol-4-yl)-2,7-dimethyl-5,7-dihydro-4H-pyrazolo[3,4-c]pyridin-6-yl]-(6-quinolyl)methanone]
55.2 | C[C@H]1c2nn(C)c(-c3cccc4c3OCC4)c2CCN1C(=O)c1ccc2ncccc2c1 [Example 539, [(7S)-3-(2,3-Dihydrobenzofuran-7-yl)-2,7-dimethyl-5,7-dihydro-4H-pyrazolo[3,4-c]pyridin-6-yl]-(6-quinolyl)methanone]
2.17 | C[C@H]1c2nn(C)c(-c3cccc4c3OCO4)c2CCN1C(=O)c1ccc2ncccc2c1 [Example 541, [(7S)-3-(1,3-Benzodioxol-4-yl)-2,7-dimethyl-5,7-dihydro-4H-pyrazolo[3,4-c]pyridin-6-yl]-(6-quinolyl)methanone]
4.92 | C[C@H]1c2nn(C)c(-c3cc(F)c(F)c(F)c3)c2CCN1C(=O)c1cccc2cnccc12 [Example 543, [(7S)-2,7-Dimethyl-3-(3,4,5-trifluorophenyl)-5,7-dihydro-4H-pyrazolo[3,4-c]pyridin-6-yl]-(5-isoquinolyl)methanone]
10.2 | C[C@H]1c2nn(C)c(-c3cc(F)c(F)c(F)c3)c2CCN1C(=O)c1ccc2cnccc2c1 [Example 544, [(7S)-2,7-Dimethyl-3-(3,4,5-trifluorophenyl)-5,7-dihydro-4H-pyrazolo[3,4-c]pyridin-6-yl]-(6-isoquinolyl)methanone]
11.7 | C[C@H]1c2nn(C)c(-c3cc(F)c(F)c(F)c3)c2CCN1C(=O)c1cnc2cccc(F)c2c1 [Example 545, [(7S)-2,7-Dimethyl-3-(3,4,5-trifluorophenyl)-5,7-dihydro-4H-pyrazolo[3,4-c]pyridin-6-yl]-(5-fluoro-3-quinolyl)methanone]
5.06 | C[C@H]1c2nn(C)c(-c3cc(F)c(F)c(F)c3)c2CCN1C(=O)c1cncc2c(F)cccc12 [Example 546, [(7S)-2,7-Dimethyl-3-(3,4,5-trifluorophenyl)-5,7-dihydro-4H-pyrazolo[3,4-c]pyridin-6-yl]-(8-fluoro-4-isoquinolyl)methanone]
5.62 | C[C@H]1c2nn(C)c(-c3cc(F)c(F)c(F)c3)c2CCN1C(=O)c1ccc2nccc(Br)c2c1 [Example 547, (4-Bromo-6-quinolyl)-[(7S)-2,7-dimethyl-3-(3,4,5-trifluorophenyl)-5,7-dihydro-4H-pyrazolo[3,4-c]pyridin-6-yl]methanone]
